Results from PubChem BioAssay (NCI).
Several values for one entry are separate records, joined by “and”; a condition that tells them apart may be missing. Equal entries are not always repeated.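 Compound exposure: 48 hours, 5 concentrations, 96-well plates. The concentration for 50% growth inhibition is given as GI50. TGI: total growth inhibition.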

How the values were obtained:
Assay in all cases: NCI tumour cell line growth inhibition, 48 h
786-0 renal = system: 786-0 renal
A498 renal = system: A498 renal
ACHN renal = system: ACHN renal
BT-549 breast = system: BT-549 breast
CAKI-1 renal = system: CAKI-1 renal
CCRF-CEM leukemia = system: CCRF-CEM leukemia
COLO 205 colon = system: COLO 205 colon
DU-145 prostate = system: DU-145 prostate
EKVX NSCLC = system: EKVX NSCLC
HCC-2998 colon = system: HCC-2998 colon
HCT-116 colon = system: HCT-116 colon
HCT-15 colon = system: HCT-15 colon
HL-60(TB) leukemia = system: HL-60(TB) leukemia
HOP-62 NSCLC = system: HOP-62 NSCLC
HOP-92 NSCLC = system: HOP-92 NSCLC
HS 578T breast = system: HS 578T breast
HT29 colon = system: HT29 colon
K-562 leukemia = system: K-562 leukemia
KM12 colon = system: KM12 colon
LOX IMVI melanoma = system: LOX IMVI melanoma
M14 melanoma = system: M14 melanoma
MALME-3M melanoma = system: MALME-3M melanoma
MCF7 breast = system: MCF7 breast
MDA-MB-231 breast = system: MDA-MB-231 breast
MDA-MB-435 = system: MDA-MB-435
MDA-N = system: MDA-N
MOLT-4 leukemia = system: MOLT-4 leukemia
NCI-H226 lung = system: NCI-H226 lung
NCI-H23 lung = system: NCI-H23 lung
NCI-H460 lung = system: NCI-H460 lung
NCI-H522 lung = system: NCI-H522 lung
NCI/ADR-RES ovarian = system: NCI/ADR-RES ovarian
OVCAR-3 ovarian = system: OVCAR-3 ovarian
OVCAR-4 ovarian = system: OVCAR-4 ovarian
OVCAR-5 ovarian = system: OVCAR-5 ovarian
OVCAR-8 ovarian = system: OVCAR-8 ovarian
PC-3 prostate = system: PC-3 prostate
RPMI-8226 leukemia = system: RPMI-8226 leukemia
RXF 393 renal = system: RXF 393 renal
SF-268 CNS = system: SF-268 CNS
SF-295 CNS = system: SF-295 CNS
SF-539 CNS = system: SF-539 CNS
SK-MEL-2 melanoma = system: SK-MEL-2 melanoma
SK-MEL-28 melanoma = system: SK-MEL-28 melanoma
SK-MEL-5 melanoma = system: SK-MEL-5 melanoma
SNB-19 CNS = system: SNB-19 CNS
SNB-75 CNS = system: SNB-75 CNS
SR leukemia = system: SR leukemia
SW-620 colon = system: SW-620 colon
T-47D breast = system: T-47D breast
TK-10 renal = system: TK-10 renal
U251 CNS = system: U251 CNS
UACC-257 melanoma = system: UACC-257 melanoma
UACC-62 melanoma = system: UACC-62 melanoma
UO-31 renal = system: UO-31 renal

## COc1cc2cc(C(=O)N3C[C@H](CCl)c4c3cc(O)c3ccccc43)[nH]c2c(OC)c1OC
786-0 renal
  GI50: 17.4 nM
  TGI: 493 nM and 51.9 nM
A498 renal
  TGI: 684 nM
ACHN renal
  TGI: 581 nM
BT-549 breast
  GI50: 31.2 nM
  TGI: 1560 nM and 460 nM
CAKI-1 renal
  GI50: < 10 nM
CCRF-CEM leukemia
  GI50: < 10 nM
  TGI: 48 nM
COLO 205 colon
  GI50: 118 nM
  TGI: 1800 nM and 483 nM
DU-145 prostate
  GI50: < 10 nM
  TGI: 1530 nM and 213 nM
EKVX NSCLC
  GI50: 139 nM
  TGI: 953 nM and 641 nM
HCC-2998 colon
  GI50: 28.6 nM
  TGI: 654 nM and 1130 nM
HCT-116 colon
  GI50: 16.5 nM
  TGI: 59 µM
HCT-15 colon
  GI50: 22 nM
HL-60(TB) leukemia
  TGI: 10.5 nM
HOP-62 NSCLC
  GI50: 15.7 nM
  TGI: 198 nM and 1060 nM
HOP-92 NSCLC
  TGI: 2650 nM
HS 578T breast
  TGI: 652 nM
HT29 colon
  GI50: 2640 nM
  TGI: 6.82 µM
K-562 leukemia
  GI50: 46 nM
KM12 colon
  GI50: 42.5 nM
  TGI: 677 nM and 1370 nM
LOX IMVI melanoma
  GI50: 20.1 nM
  TGI: 1.83 µM and 12.3 µM
M14 melanoma
  GI50: 26.8 nM
MALME-3M melanoma
  GI50: 25.9 nM
  TGI: 442 nM and 82.7 nM
MCF7 breast
  GI50: < 10 nM
  TGI: 10.2 µM
MDA-MB-231 breast
  TGI: 3.94 µM
MDA-MB-435
  GI50: 20.1 nM
  TGI: 634 nM and 91.2 nM
MDA-N
  TGI: 2130 nM
MOLT-4 leukemia
  GI50: < 10 nM
  TGI: 6.22 µM
NCI-H226 lung
  GI50: 1790 nM
  TGI: 504 nM and 3380 nM
NCI-H23 lung
  GI50: < 10 nM
  TGI: 234 nM and 92.7 nM
NCI-H460 lung
  GI50: < 10 nM
  TGI: 4.34 µM and 23.5 µM
NCI-H522 lung
  GI50: 10.4 nM
NCI/ADR-RES ovarian
  GI50: 1340 nM
  TGI: 563 nM and 4620 nM
OVCAR-3 ovarian
  GI50: 47.4 nM
  TGI: 14.4 µM
OVCAR-4 ovarian
  GI50: 61.2 nM
  TGI: 2.76 µM and 14.6 µM
OVCAR-5 ovarian
  GI50: 23.7 nM
  TGI: 2.15 µM and 13.7 µM
OVCAR-8 ovarian
  GI50: 1670 nM
  TGI: 1130 nM and 3530 nM
PC-3 prostate
  GI50: 35.5 nM
  TGI: 2.27 µM and 18.9 µM
RPMI-8226 leukemia
  GI50: < 10 nM
RXF 393 renal
  TGI: 194 nM
SF-268 CNS
  GI50: 16.9 nM
  TGI: 563 nM and 4990 nM
SF-295 CNS
  TGI: 1230 nM
SF-539 CNS
  TGI: 192 nM
SK-MEL-2 melanoma
  TGI: 461 nM
SK-MEL-28 melanoma
  TGI: 1990 nM
SK-MEL-5 melanoma
  TGI: 43.9 nM
SNB-19 CNS
  GI50: 39.1 nM
  TGI: 1420 nM and 1670 nM
SNB-75 CNS
  TGI: 449 nM
SR leukemia
  TGI: 67.2 nM
SW-620 colon
  GI50: < 10 nM
T-47D breast
  GI50: 25.6 nM
  TGI: 362 nM
TK-10 renal
  GI50: 57.1 nM
  TGI: > 100 µM
U251 CNS
  GI50: 19 nM
  TGI: 3.23 µM and 3.06 µM
UACC-257 melanoma
  GI50: 135 nM and 45.9 nM
UACC-62 melanoma
  GI50: 35.1 nM
UO-31 renal
  TGI: 543 nM
